Oligonucleotides are written 5' to 3', each unit as a sugar letter and its base; * is a phosphorothioate linkage, no mark a phosphodiester; rarer units and linkages stand in square brackets, end groups in braces. Plain capitals give the bases only. d = 2'-deoxy (DNA); r = 2'-OH (RNA)
biological target: UBE2I; test: reporter assay of Huesken 2005; conditions: siRNA
Also: test concentration or dose not given here.

Substance	normalised inhibition (eCFP-eYFP dual reporter) [%]
sense rArArArUrGrUrArArArUrUrCrGrArArCrCrArCdTdT / antisense rGrUrGrGrUrUrCrGrArArUrUrUrArCrArUrUrUdTdG	53.9
sense rArArCrCrArArArUrArUrCrCrArArGrArCrCrCdTdT / antisense rGrGrGrUrCrUrUrGrGrArUrArUrUrUrGrGrUrUdCdA	48.9
sense rArArCrCrUrCrArUrGrArArCrUrGrGrGrArGrUdTdT / antisense rArCrUrCrCrCrArGrUrUrCrArUrGrArGrGrUrUdCdA	34.5
sense rArArGrArArArGrGrGrArCrUrCrCrGrUrGrGrGdTdT / antisense rCrCrCrArCrGrGrArGrUrCrCrCrUrUrUrCrUrUdTdC	45.6
sense rArArUrGrUrGrUrArCrCrCrUrUrCrGrGrGrGrAdTdT / antisense rUrCrCrCrCrGrArArGrGrGrUrArCrArCrArUrUdCdG	59.6
sense rArCrArGrUrGrUrGrCrCrUrGrUrCrCrArUrCrUdTdT / antisense rArGrArUrGrGrArCrArGrGrCrArCrArCrUrGrUdCdC	59.2
sense rArCrCrArArArArUrGrUrArArArUrUrCrGrArAdTdT / antisense rUrUrCrGrArArUrUrUrArCrArUrUrUrUrGrGrUdGdG	86.4
sense rArCrCrArArArUrArUrCrCrArArGrArCrCrCrAdTdT / antisense rUrGrGrGrUrCrUrUrGrGrArUrArUrUrUrGrGrUdTdC	83.9
sense rArCrCrArUrUrArUrUrUrCrArCrCrCrGrArArUdTdT / antisense rArUrUrCrGrGrGrUrGrArArArUrArArUrGrGrUdGdG	88.3
sense rArCrCrCrArUrUrUrGrGrUrUrUrCrGrUrGrGrCdTdT / antisense rGrCrCrArCrGrArArArCrCrArArArUrGrGrGrUdGdG	56.9
sense rArCrCrUrCrArUrGrArArCrUrGrGrGrArGrUrGdTdT / antisense rCrArCrUrCrCrCrArGrUrUrCrArUrGrArGrGrUdTdC	58.8
sense rArGrArArArGrGrGrArCrUrCrCrGrUrGrGrGrAdTdT / antisense rUrCrCrCrArCrGrGrArGrUrCrCrCrUrUrUrCrUdTdT	63.1
sense rArGrArCrCrArCrCrCrArUrUrUrGrGrUrUrUrCdTdT / antisense rGrArArArCrCrArArArUrGrGrGrUrGrGrUrCrUdTdT	79.8
sense rArGrArUrCrCrUrArUrUrArGrGrArArUrArCrAdTdT / antisense rUrGrUrArUrUrCrCrUrArArUrArGrGrArUrCrUdGdT	90.4
sense rArGrArUrGrArUrUrArUrCrCrArUrCrUrUrCrGdTdT / antisense rCrGrArArGrArUrGrGrArUrArArUrCrArUrCrUdTdT	52.7
sense rArGrCrCrArUrCrArCrArArUrCrArArArCrArGdTdT / antisense rCrUrGrUrUrUrGrArUrUrGrUrGrArUrGrGrCrUdGdG	60.1
sense rArGrCrUrCrArArGrCrArGrArGrGrCrCrUrArCdTdT / antisense rGrUrArGrGrCrCrUrCrUrGrCrUrUrGrArGrCrUdGdG	89.5

Substance	normalised inhibition (eCFP-eYFP dual reporter) [%]
sense rArGrGrGrArCrUrCrCrGrUrGrGrGrArArGrGrAdTdT / antisense rUrCrCrUrUrCrCrCrArCrGrGrArGrUrCrCrCrUdTdT	72.1
sense rArUrArCrArGrGrArArCrUrUrCrUrArArArUrGdTdT / antisense rCrArUrUrUrArGrArArGrUrUrCrCrUrGrUrArUdTdC	52.1
sense rArUrGrUrArArArUrUrCrGrArArCrCrArCrCrAdTdT / antisense rUrGrGrUrGrGrUrUrCrGrArArUrUrUrArCrArUdTdT	75
sense rArUrUrCrCrArGrGrArArArGrArArArGrGrGrAdTdT / antisense rUrCrCrCrUrUrUrCrUrUrUrCrCrUrGrGrArArUdGdG	83.9
sense rArUrUrCrGrArArCrCrArCrCrArUrUrArUrUrUdTdT / antisense rArArArUrArArUrGrGrUrGrGrUrUrCrGrArArUdTdT	81
sense rArUrUrUrGrGrUrUrUrCrGrUrGrGrCrUrGrUrCdTdT / antisense rGrArCrArGrCrCrArCrGrArArArCrCrArArArUdGdG	51.6
sense rCrArArGrArCrCrCrArGrCrUrCrArArGrCrArGdTdT / antisense rCrUrGrCrUrUrGrArGrCrUrGrGrGrUrCrUrUrGdGdA	75.8
sense rCrArCrArArUrCrArArArCrArGrArUrCrCrUrAdTdT / antisense rUrArGrGrArUrCrUrGrUrUrUrGrArUrUrGrUrGdAdT	87.4
sense rCrArCrCrCrArUrUrUrGrGrUrUrUrCrGrUrGrGdTdT / antisense rCrCrArCrGrArArArCrCrArArArUrGrGrGrUrGdGdT	85.4
sense rCrArGrArGrGrCrCrUrArCrArCrGrArUrUrUrAdTdT / antisense rUrArArArUrCrGrUrGrUrArGrGrCrCrUrCrUrGdCdT	83.8
sense rCrArGrArUrCrCrUrArUrUrArGrGrArArUrArCdTdT / antisense rGrUrArUrUrCrCrUrArArUrArGrGrArUrCrUrGdTdT	74.4
sense rCrArGrUrGrUrGrCrCrUrGrUrCrCrArUrCrUrUdTdT / antisense rArArGrArUrGrGrArCrArGrGrCrArCrArCrUrGdTdC	80.1
sense rCrCrArGrCrCrArUrCrArCrArArUrCrArArArCdTdT / antisense rGrUrUrUrGrArUrUrGrUrGrArUrGrGrCrUrGrGdCdC	56
sense rCrCrArGrGrArArArGrArArArGrGrGrArCrUrCdTdT / antisense rGrArGrUrCrCrCrUrUrUrCrUrUrUrCrCrUrGrGdAdA	54.9
sense rCrCrCrGrArUrGrGrCrArCrGrArUrGrArArCrCdTdT / antisense rGrGrUrUrCrArUrCrGrUrGrCrCrArUrCrGrGrGdAdT	55
sense rCrCrGrArUrGrGrCrArCrGrArUrGrArArCrCrUdTdT / antisense rArGrGrUrUrCrArUrCrGrUrGrCrCrArUrCrGrGdGdA	81.8

biological target: RHOQ; test: reporter assay of Huesken 2005; conditions: siRNA

Substance	normalised inhibition (eCFP-eYFP dual reporter) [%]
sense rUrGrArArGrArGrUrGrGrArGrArGrArGrUrCrUdTdT / antisense rArGrArCrUrCrUrCrUrCrCrArCrUrCrUrUrCrAdAdT	70.7
sense rUrGrArArUrCrGrGrArCrArUrUrUrGrGrArUrGdTdT / antisense rCrArUrCrCrArArArUrGrUrCrCrGrArUrUrCrAdGdA	38.9
sense rUrGrArCrUrUrGrArGrCrUrUrArUrArGrCrUrAdTdT / antisense rUrArGrCrUrArUrArArGrCrUrCrArArGrUrCrAdTdG	84.9
sense rUrGrCrArUrCrArGrArUrArArUrGrGrUrGrUrUdTdT / antisense rArArCrArCrCrArUrUrArUrCrUrGrArUrGrCrAdTdC	61.6
sense rUrGrCrArUrUrUrUrArGrArGrArArArCrArArUdTdT / antisense rArUrUrGrUrUrUrCrUrCrUrArArArArUrGrCrAdTdT	84.9
sense rUrGrCrCrArUrGrCrArUrCrArGrArUrArArUrGdTdT / antisense rCrArUrUrArUrCrUrGrArUrGrCrArUrGrGrCrAdTdA	59.7
sense rUrGrCrUrCrArUrArUrCrArGrUrCrArCrArArAdTdT / antisense rUrUrUrGrUrGrArCrUrGrArUrArUrGrArGrCrAdTdT	83.6
sense rUrGrCrUrGrUrUrGrCrCrCrArArArUrUrArUrAdTdT / antisense rUrArUrArArUrUrUrGrGrGrCrArArCrArGrCrAdAdG	85.6
sense rUrGrGrArUrCrUrGrCrCrUrUrArUrUrGrCrArUdTdT / antisense rArUrGrCrArArUrArArGrGrCrArGrArUrCrCrAdCdA	88.7
sense rUrGrGrArUrGrUrCrUrUrCrUrUrUrCrUrUrCrCdTdT / antisense rGrGrArArGrArArArGrArArGrArCrArUrCrCrAdAdA	68.4
sense rUrGrUrArUrGrUrGrArGrCrUrUrUrGrUrArGrAdTdT / antisense rUrCrUrArCrArArArGrCrUrCrArCrArUrArCrAdAdC	75.3
sense rUrGrUrGrArArCrArArCrCrUrArArUrGrCrArUdTdT / antisense rArUrGrCrArUrUrArGrGrUrUrGrUrUrCrArCrAdAdT	75.4
sense rUrGrUrGrGrArUrCrUrGrCrCrUrUrArUrUrGrCdTdT / antisense rGrCrArArUrArArGrGrCrArGrArUrCrCrArCrAdGdC	68.8
sense rUrUrArArUrUrCrArCrArUrGrArCrUrUrGrArGdTdT / antisense rCrUrCrArArGrUrCrArUrGrUrGrArArUrUrArAdCdA	54.4
sense rUrUrCrCrArArGrArArArUrGrGrUrGrGrUrUrCdTdT / antisense rGrArArCrCrArCrCrArUrUrUrCrUrUrGrGrArAdGdA	38.3
sense rUrUrGrArArArArUrGrArCrArGrCrCrUrUrArAdTdT / antisense rUrUrArArGrGrCrUrGrUrCrArUrUrUrUrCrArAdGdT	87.1
sense rUrUrGrCrUrGrUrUrGrCrCrCrArArArUrUrArUdTdT / antisense rArUrArArUrUrUrGrGrGrCrArArCrArGrCrArAdGdT	83.5
sense rUrUrGrUrGrArArCrArArCrCrUrArArUrGrCrAdTdT / antisense rUrGrCrArUrUrArGrGrUrUrGrUrUrCrArCrArAdTdG	83
sense rUrUrUrCrUrUrArUrUrUrArArUrUrUrUrGrGrUdTdT / antisense rArCrCrArArArArUrUrArArArUrArArGrArArAdGdT	44.1

Source: the OligoGym collection
